Experiments:
[1] = system: PYK2 tyrosine phosphorylation in SF767 gliomas; experiment: PYK2 tyrosine phosphorylation in SF767 gliomas (immunoprecipitation, anti-phosphotyrosine western blot); format: cell-based, human; conditions: for HRG-induced tyrosine phosphorylation of PYK2: 5 μg/ml HRG 20 min, pretreatment with PP1 5 μM 30 min, AG825 10 μM 1 hour or Wortmannin 100 nM 30 min
Method: (§1) SF767 gliomas were pretreated with 5 μM PP1 for 30 minutes and stimulated either with 5 μg ml^−1 Heregulin (HRG, left panel) or 5 μM lonomycin (IONO, right panel) for 20 min and 5 min, respectively. b, PYK2 coprecipitation with HER3 depends on the HER2 kinase activity, and tyrosine phosphorylation of PYK2 is proportional to its binding to HER3. SF767 gliomas were pretreated with 10 μM AG825 for 1 hour and stimulated with 5 μg ml^−1 Heregulin for 20 min (HRG). Cell lysates were subjected to immunoprecipitation (IP) using polyclonal anti-PYK2 (α-PYK2) or monoclonal anti-HER3 (α-HER3) antibodies. Tyrosine phosphorylation level was analysed by western blotting (WB) with monoclonal anti-phosphotyrosine antibody (α-4G10) (a, upper panels, and b, upper panel). Equal loading of proteins was checked by reblotting with α-PYK2 and α-HER3 antibodies, respectively (a, lower panels, and b, middle and lower panels). PYK2 coprecipitating with HER3 was detected by probing the membrane with α-PYK2 antibody (b, middle panel, lanes 1-4). Unstimulated cells are indicated by NS.
SF763, SF767 or transfected HEK293 cells were either left untreated or were pretreated with PP1 (10 μM), AG825 (10 μM), Wortmannin (WT) (100 nM) and PD98059 (25 μM) for 30-60 min following stimulation with 5 μg/ml recombinant human HRG for 20 min or with 5 μM IONO for 5 min at 37° C. Upon HRG or IONO stimulation, the cells were lysed on ice in a lysis buffer (50 mM HEPES pH 7.5, containing 150 mM NaCl, 1 mM EDTA, 10% (v/v) glycerol, 1% (v/v) Triton X-100, 1 mM sodium fluoride, 1 mM phenylmethylsulfonyl fluoride, 1 mM sodium orthovanadate, 1 mM β-glycerolphosphate, […] aprotinin). Crude lysates were centrifuged at 12500 g for 20 min at 4° C. For immunoprecipitations, the appropriate antiserum and 30 μl of protein A-Sepharose (Pharmacia) was added to the cleared lysate and incubated for 3 h at 4° C. […]
(§2) Proteins were fractionated by SDS-PAGE and electrophoretically transferred to nitrocellulose filters. […] The substrate reaction was detected on Kodak X-Omat film. […]

[2] = system: PYK2 coprecipitating with HER3 in SF767 gliomas; experiment: PYK2 coprecipitation with HER3 in SF767 gliomas; format: cell-based, human; conditions: AG825 10 μM 1 hour, with or without HRG
Method: as §1, with “NS. […]” for “NS.”
as §2

[3] = system: SHC tyrosine phosphorylation in SF767 gliomas; experiment: SHC tyrosine phosphorylation in SF767 gliomas; format: cell-based, human; conditions: AG825 10 μM 1 hour, 5 μg/ml HRG 20 min
Method: (§3) FIG. 5: PYK2 mediates mitogenicity upon HRG stimulation. a, b, SF767 gliomas were pretreated either with 10 μM AG825 for 1 hour or with 100 nM Wortmannin for 30 min (WT), and then stimulated with 5 μg ml^−1 Heregulin for 20 min (HRG). Tyrosine phosphorylation of SHC was elevated by HRG and attenuated by pretreatment with AG825, but not fully abrogated (a). The same holds also for ERK-2 activity, when cells were pretreated either with AG825 or with WT (b). Cell lysates were used for immunoprecipitation with polyclonal anti-SHC (α-SHC) (a), or polyclonal anti-Erk-2 (α-ERK-2) antibodies (b). α-SHC-immunocomplexes were blotted with a monoclonal anti-phosphotyrosine antibody (α-4G10) (a), whereas α-ERK-2 immunocomplexes were subjected to MAP-kinase assays (b). Phosphorylated MBP is indicated by an arrow. c, Tetracyclin-inducible pheochromocytoma PC12 cells, either stably expressing PYK2-KM (Tet−), or only endogenous PYK2 (Tet+), were pretreated either with 100 nm Wortmannin for 30 min (WT), or 10 μM AG825 for 1 hour prior to stimulation with 5 μg ml^−1 Heregulin for 20 min (HRG). Basal ERK-2 activity is independent of HER2 and Pl3-K, whereas the HRG-stimulated ERK-2 activity is dependent on HER2, Pl3-K and PYK2. […]
as §2

[4] = system: ERK-2 activity in SF767 gliomas; experiment: MAP-kinase assay on ERK-2 immunocomplexes from SF767 gliomas; format: cell-based, human; conditions: AG825 10 μM 1 hour or WT 100 nM 30 min, 5 μg/ml HRG 20 min
Method: as §3, with “PYK2. Overexpression of PYK2-KM leads to a general attenuation of ERK-2 activity (compare Tet− with Tet+ bands).” for “PYK2.”

[5] = system: ERK-2 activity in PC12 cells; experiment: MAP-kinase assay on ERK-2 immunocomplexes from tetracyclin-inducible PC12 cells (Tet-off PYK2-KM); format: cell-based, rat; conditions: AG825 10 μM 1 hour, WT 100 nM 30 min or PYK2-KM expression (Tet−); for HRG-stimulated ERK-2 activity: 5 μg/ml HRG 20 min; for Basal ERK-2 activity: unstimulated
[6] = system: Pl3-K activity in PC12 cells; experiment: Pl3-K assay on anti-phosphotyrosine immunoprecipitates from tetracyclin-inducible PC12 cells; format: cell-based, rat; conditions: PC12 Tet-off; 5 μg/ml HRG 20 min; AG825 10 μM 1 hour or PYK2-KM expression (Tet−)
Method: FIG. 6: PYK2 enhances Pl3-K activity upon HRG stimulation. a, Tetracyclin-inducible pheochromocytoma […], either stably expressing PYK2-KM (Tet−) or only endogenous PYK2 (Tet+), were pretreated either with 100 nm Wortmannin for 30 min (WT), or 10 μM AG825 for 1 hour prior to stimulation with 5 μg ml^−1 Heregulin for 20 min (HRG). Lysates were subjected to α-4G10 immunoprecipitation and Pl3-K assays were performed (see Methods section). Pl3-K activity is strongly dependent on PYK2 upon HRG stimulation, and is diminished by AG825. MAP-kinase and Pl3-kinase assays were performed as described previously (49, 50).

[7] = system: HER2 tyrosine phosphorylation in PC 12 cells; experiment: HER2 tyrosine phosphorylation in PC 12 cells; format: cell-based, rat; conditions: 10 μM AG825, HRG stimulation
Method: (§4) FIGS. 13, 14: PC 12 cells were left untreated or pretreated either with 10 μM AG825, 50 μM PD98059 or both and subsequently stimulated with HRG. Immunoprecipitations of HER2 (α-HER2) or of tyrosyl-phosphorylated proteins (α-PY) were probed with phosphotyrosine antibody (α-PY). […] Reprobing of the blot with HER2 antibody confirms equal loading of proteins. SHC is indicated by an arrow.

[8] = system: SHC tyrosine phosphorylation in PC 12 cells; experiment: SHC tyrosine phosphorylation in PC 12 cells; format: cell-based, rat; conditions: 10 μM AG825, HRG stimulation
Method: as §4

C6 gliomas = experiment: Tumor invasion assay, C6 gliomas; format: cell-based, rat; conditions: 5 μg/ml HRG, 16 h, PD98059 25 μM 30 min pretreatment or retroviral PYK2-KM
Method: (§5) FIG. 7: PYK2-KM inhibits tumor invasion upon HRG stimulation. a, C6 gliomas were retrovirally infected with either a control vector pLXSN (mock), PYK2, dominant negative PYK2 mutant PYK2-KM, or pretreated with a MEK1 inhibitor PD98059 (25 μM) for 30 min, and tumor invasion assays were performed (see Methods section). b, Invasion is supressed to the same extent by PD98059 and by overexpression of PYK2-KM (p>0.95). c, SF767 gliomas were retrovirally infected with pLXSN or PYK2-KM. d, Tumor invasion is supressed by overexpresssion of PYK2-KM in SF767 (p<0.008), and also in SF763 cell line (p<0.005), as shown by using the same assay. Representative bright-field micrographs of cells that migrated through the 8 μm filters in 16 h are shown. […]
(§6) Amphotrophic virus titer, which was generated by transient transfection of retrovirus expression plasmids into the virus producer cell line PhoenixA (ATCC), was determined by infecting NIH-3T3 cells with serial dilutions of retrovirus-containing, cell-free PhoenixA supernatants and counting the number of G418-resistant colonies. […]
(§7) Tumor invasion assay was performed as describ d previously (31). […] Following 16 h of incubation, non-invading cells were removed with cotton swabs, whereas invading cells were fixed, stained with Crystal violet and counted under bright-field illumination using an Axiovert135 inverted microscope (Zeiss). […]

[9] = system: ERK-2 phosphorylation in C6 glioma cells; experiment: Phosphorylated ERK-2 in whole cell lysates of C6 glioma cells; format: cell-based, rat; conditions: in parallel to the tumor invasion assay, PD98059 or PYK2-KM
Method: (§8) FIGS. 15, 16: Whole cell lysates (WCL) of C6 glioma cells were prepared in parallel to the tumor invasion assay and the content of phosphorylated ERK-2 was assessed by probing with a specific phospho-ERK2 antibody (upper panel). To confirm equal loading of proteins the blot was reprobed with a pan-ERK antibody. (16) The same experimental procedure was used as in (15) for SF767 cells. Phosphorylated ERK-2 is indicated by an arrow. Dominant-negative PYK2-KM abrogates ERK-2 activity to the same extent as MEK-1 inhibitor PD98059.
(§9) Proteins were fractionated by SDS-PAGE and electrophoretically transferred to nitrocellulose filters. For immunoblot analysis, nitrocellulose filters were first incubated with mouse monoclonal or rabbit polyclonal primary antibodies for 3 h at 4° C. Next, a HRP-coupled goat anti-mouse or goat anti-rabbit secondary antibody was added (Biorad), followed by an enhanced chemoluminescence (ECL) substrate reaction (Amersham). The substrate reaction was detected on Kodak X-Omat film. Filters that were used more than once with different antibodies were stripped according to the manufacturer's protocol, blocked and reprobed.

[10] = system: ERK-2 phosphorylation in SF767 cells; experiment: Phosphorylated ERK-2 in whole cell lysates of SF767 cells; format: cell-based, human; conditions: in parallel to the tumor invasion assay, PD98059 or PYK2-KM
Method: as §8, §9

SF767 gliomas = experiment: Tumor invasion assay, SF767 gliomas; format: cell-based, human; conditions: HRG, 16 h, retroviral infection with PYK2-KM
Method: as §5, §6, §7

SF763 cell line = experiment: Tumor invasion assay, SF763 cell line; format: cell-based, human; conditions: HRG, 16 h, retroviral infection with PYK2-KM
Method: as §5, §6, §7

`COc1cc(/C=C(\C#N)C(N)=O)cc(CSc2nc3ccccc3s2)c1O` [AG825] was tested, and the “HRG-induced tyrosine phosphorylation of PYK2” value [1] was “attenuated”, the “Amount of PYK2 that coprecipitates with HER3” value [2] was “decreases” and the “HRG-stimulated tyrosine-phosphorylation of SHC” value [3] was “diminished, but not fully abrogated”. The “HRG-stimulated ERK-2 activity” value [4] was “diminished, but not fully abrogated”, the “HRG-stimulated ERK-2 activity” value [5] was “attenuated” and the “Basal ERK-2 activity” value [5] was “not influenced”. The “Pl3-K activity upon HRG stimulation” value [6] was “diminished”, the “Tyrosine phosphorylation of HER2” value [7] was “completely inhibits” and the “Tyrosine phosphorylation of SHC” value [8] was “completely inhibits”.
With `COc1cccc(-c2cc(=O)c3ccccc3o2)c1N` [PD98059] the “Tumor invasion (invasiveness)” value (C6 gliomas) was “strongly attenuated”, the ERK-2 phosphorylation [9] was “decrease” and the ERK-2 phosphorylation [10] was “decrease”.
For `Cc1ccc(-c2nn(C(C)(C)C)c3ncnc(N)c23)cc1` [PP1], the “Ionomycin-induced tyrosine phosphorylation of PYK2” value ([1]; 5 μM IONO 5 min, PP1 5 μM 30 min pretreatment) was “dependent on c-src activity” and the “HRG-induced tyrosine phosphorylation of PYK2” value [1] was “independent of c-src”.
“PYK2-KM: dominant negative, kinase-inactive PYK2 mutant K457M, expressed by retroviral infection or Tet-off system” was tested, and the “HRG-stimulated ERK-2 activity” value [5] was “abrogated”, the “Basal ERK-2 activity” value [5] was “abrogated” and the “Pl3-K activity upon HRG stimulation” value [6] was “attenuates”. For the same compound, the “Tumor invasion (invasiveness)” value (C6 gliomas) was “comparable abrogation of the invasive phenotype”, the “Tumor invasion (invasive behaviour)” value (SF767 gliomas) was “strong inhibition” and the “Tumor invasion (invasive behaviour)” value (SF763 cell line) was “strong inhibition”. For the same compound, the ERK-2 phosphorylation [9] was “decrease” and the ERK-2 phosphorylation [10] was “decrease”.
